# Test results: patent publication US20230210999A1, “TARGETED PROTEASE DEGRADATION (TED) PLATFORM” (EUBULUS BIOTHERAPEUTICS INC., priority 2020, published 2023)
# Read-outs that look alike come from different tables or passages of the source.
# Experiments:
# Assay type in all cases: cell-based, human
# MV4;11 cells = assay: Cell proliferation experiment (Alamar blue, 72 h), MV4;11; conditions: read-out: Inhibitory activity IC50 on MV4;11
# Method in brief: (§1)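 Log-phase cells were seeded in 96-well plates and exposed to compound in complete medium over a 5-fold dilution series, in duplicate, for 72 h. Alamar blue fluorescence was read per well and IC50 was obtained by four-parameter curve fitting.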
# NCIH82 cells = assay: Cell proliferation experiment, NCI-H82; conditions: read-out: Inhibitory activity IC50 on NCI-H82
# Method in brief: as §1
# PC-3 = assay: Cell proliferation experiment, PC-3; conditions: read-out: Inhibitory activity IC50 on PC-3
# Experimental: (§2) Reagents: RPMI-1640 medium, McCoy's 5A medium, IMDM medium, MEM medium, L-15 medium, fetal bovine serum. Penicillin-Streptomycin double antibody, trypsin, etc., 2-mercaptoethanol, NEAA, pyruvate, etc.
# (§3) The cells were cultured in conventional ways, and the cells should be passed at least 2 generations before plating. Cells at the logarithmic growth phase were collected, prepared into single cell suspensions and counted. The concentration of cells was adjusted to the desired concentration, and cells were inoculated into a 96-well cell culture plate at 100 μl per well. 100 μL of complete medium of the test compound were added to each well, set up 2 duplicate wells for each concentration, and diluted with a 5-fold gradient, and continued to culture for 72 h. All cells were subjected to IC50 test for corresponding samples. The experimental results are shown in Test Example 4.
# (§4) The fluorescence intensity of each well was detected using the Alarm blue method, and IC50 was calculated.
# (§5) IC50 was calculated according to the following formula:
# (§6) Y=Max+(Min−Max)/[1+(X/IC50)×Slope]
# (§7) wherein Min, Max and Slope represent the minimum, maximum and slope respectively.
# MDA-MB-231 cells = assay: Cell proliferation experiment, MDA-MB-231; conditions: read-out: Inhibitory activity IC50 on MDA-MB-231
# Experimental: as §2, §3, §4, §5, §6, §7
# [1] = Homo sapiens, MV4-11, MV4;11 cells
# [2] = Homo sapiens, NCI-H82, NCI-H82 cells
# [3] = Homo sapiens, MDA-MB-231, MDA-MB-231 cells
SMILES,IC50 (MV4;11 cells; [1]) [nM],IC50 (NCIH82 cells; [2]) [nM],"IC50 (PC-3; Homo sapiens, PC-3, PC-3 cells) [nM]",IC50 (MDA-MB-231 cells; [3]) [nM],IC50 (MV4;11 cells; MV4;11 cells) [nM],IC50 (NCIH82 cells; NCI-H82 cells) [nM],IC50 (PC-3; PC-3 cells) [nM],IC50 (MDA-MB-231 cells; MDA-MB-231 cells) [nM]
O=C1CCC(N2Cc3cc(NC(=O)CCNCCOCCOCCNC(=O)[C@]4(Cc5cccc(Nc6nccs6)n5)CC[C@@H](Oc5cccc(Cl)c5F)CC4)ccc3C2=O)C(=O)N1 (stereo partly shown) [UB-181031],> 1000,> 1000,> 1000,> 1000,,,,
O=C1CCC(N2Cc3cc(NC(=O)CNCCCOCCOCCNC(=O)[C@]4(Cc5cccc(Nc6nccs6)n5)CC[C@@H](Oc5cccc(Cl)c5F)CC4)ccc3C2=O)C(=O)N1 (stereo partly shown) [UB-181032],100 to 1000,> 1000,> 1000,> 1000,,,,
O=C1CCC(N2Cc3cc(NC(=O)CCNCCCOCCCCNC(=O)c4ccc(Nc5ncc6c(n5)-c5ccc(Cl)cc5C(c5c(F)cccc5F)=NC6)cc4)ccc3C2=O)C(=O)N1 (stereo not shown) [UB-181033],100 to 1000,> 1000,> 1000,> 1000,,,,
O=C1CCC(N2Cc3cc(NC(=O)CCNCCCOCCCCNC(=O)[C@]4(Cc5cccc(Nc6nccs6)n5)CC[C@@H](Oc5cccc(Cl)c5F)CC4)ccc3C2=O)C(=O)N1 (stereo partly shown) [UB-181034],100 to 1000,> 1000,> 1000,> 1000,,,,
O=C1CCC(N2Cc3c(NC(=O)CNCCCOCCOCCNC(=O)[C@]4(Cc5cccc(Nc6nccs6)n5)CC[C@@H](Oc5cccc(Cl)c5F)CC4)cccc3C2=O)C(=O)N1 (stereo partly shown) [UB-181035],100 to 1000,> 1000,> 1000,> 1000,,,,
O=C1CCC(N2Cc3c(NC(=O)CCNCCOCCOCCNC(=O)[C@]4(Cc5cccc(Nc6nccs6)n5)CC[C@@H](Oc5cccc(Cl)c5F)CC4)cccc3C2=O)C(=O)N1 (stereo partly shown) [UB-181036],> 1000,> 1000,> 1000,> 1000,,,,
O=C1CCC(N2Cc3c(NC(=O)CCOCCOCCOCCN[C@H]4CC[C@@H](NC(=O)[C@]5(Cc6cccc(Nc7nccs7)n6)CC[C@@H](Oc6cccc(Cl)c6F)CC5)CC4)cccc3C2=O)C(=O)N1 (stereo partly shown) [UB-181037],> 1000,> 1000,> 1000,> 1000,,,,
O=C1CCC(N2Cc3cc(NC(=O)CCOCCOCCOCCN[C@H]4CC[C@@H](NC(=O)[C@]5(Cc6cccc(Nc7nccs7)n6)CC[C@@H](Oc6cccc(Cl)c6F)CC5)CC4)ccc3C2=O)C(=O)N1 (stereo partly shown) [UB-181038],> 1000,> 1000,> 1000,> 1000,,,,
CNC(=O)c1ccccc1Nc1nc(Nc2ccc(N3CCN(C(=O)NCCOCCOCCNCCC(=O)Nc4ccc5c(c4)CN(C4CCC(=O)NC4=O)C5=O)CC3)cc2)ncc1Cl (stereo not shown) [UB-181039],10 to 100,100 to 1000,> 1000,> 1000,,,,
CNC(=O)c1ccccc1Nc1nc(Nc2ccc(N3CCN(C(=O)NCCOCCOCCCNCC(=O)Nc4cccc5c4CN(C4CCC(=O)NC4=O)C5=O)CC3)cc2)ncc1Cl (stereo not shown) [UB-181040],10 to 100,> 1000,> 1000,> 1000,,,,
O=C1CCC(N2Cc3cc(NC(=O)CCOCCNCCOCCn4cc(-c5ccc(Nc6ncc7c(n6)-c6ccc(Cl)cc6C(c6c(F)cccc6F)=NC7)cc5)nn4)ccc3C2=O)C(=O)N1 (stereo not shown) [UB-181041],> 1000,> 1000,> 1000,> 1000,,,,
CNC(=O)c1ccccc1Nc1nc(Nc2ccc(N3CCN(C(=O)NCCCCOCCCNCCC(=O)Nc4ccc5c(c4)CN(C4CCC(=O)NC4=O)C5=O)CC3)cc2)ncc1Cl (stereo not shown) [UB-181042],10 to 100,100 to 1000,> 1000,> 1000,,,,
CNC(=O)c1ccccc1Nc1nc(Nc2ccc(N3CCN(C(=O)NCCOCCOCCNCCC(=O)Nc4cccc5c4CN(C4CCC(=O)NC4=O)C5=O)CC3)cc2)ncc1Cl (stereo not shown) [UB-181043],< 10,100 to 1000,> 1000,> 1000,,,,
CNC(=O)c1ccccc1Nc1nc(Nc2ccc(N3CCN(C(=O)NCCNCCOCCOCCC(=O)Nc4ccc5c(c4)CN(C4CCC(=O)NC4=O)C5=O)CC3)cc2)ncc1Cl (stereo not shown) [UB-181044],10 to 100,100 to 1000,> 1000,> 1000,,,,
CNC(=O)c1ccccc1Nc1nc(Nc2ccc(N3CCN(C(=O)NCCCCOCCCNCCC(=O)Nc4ccc5c(c4)CN(C4CCC(=O)NC4=O)C5=O)CC3)cc2)ncc1Cl (stereo not shown) [UB-181046],,,,,< 10,100 to 1000,> 1000,> 1000
CNC(=O)c1ccccc1Nc1nc(Nc2ccc(N3CCN(C(=O)NCCOCCOCCCNCC(=O)Nc4ccc5c(c4)CN(C4CCC(=O)NC4=O)C5=O)CC3)cc2)ncc1Cl (stereo not shown) [UB-181047],10 to 100,100 to 1000,> 1000,> 1000,,,,
CNC(=O)c1ccccc1Nc1nc(Nc2ccc(N3CCN(C(=O)NCCOCCNCCOCCC(=O)Nc4ccc5c(c4)CN(C4CCC(=O)NC4=O)C5=O)CC3)cc2)ncc1Cl (stereo not shown) [UB-181050],100 to 1000,100 to 1000,> 1000,> 1000,,,,
CNC(=O)c1ccccc1Nc1nc(Nc2ccc(N3CCN(C(=O)NCCOCCNCCOCCC(=O)Nc4cccc5c4CN(C4CCC(=O)NC4=O)C5=O)CC3)cc2)ncc1Cl (stereo not shown) [UB-181051],10 to 100,> 1000,> 1000,> 1000,,,,
CNC(=O)c1ccccc1Nc1nc(Nc2ccc(N3CCN(C(=O)NCCNCCC(=O)Nc4cccc5c4CN(C4CCC(=O)NC4=O)C5=O)CC3)cc2)ncc1Cl (stereo not shown) [UB-181053],10 to 100,100 to 1000,> 1000,> 1000,,,,

# Other lines, results leading:
IC50 (MV4;11 cells; [1]) [nM],IC50 (NCIH82 cells; [2]) [nM],"IC50 (PC-3; Homo sapiens, PC-3, PC-3 cells) [nM]",IC50 (MDA-MB-231 cells; [3]) [nM],IC50 (MV4;11 cells; MV4;11 cells) [nM],IC50 (NCIH82 cells; NCI-H82 cells) [nM],IC50 (PC-3; PC-3 cells) [nM],IC50 (MDA-MB-231 cells; MDA-MB-231 cells) [nM],SMILES
10 to 100,100 to 1000,> 1000,> 1000,,,,,CNC(=O)c1ccccc1Nc1nc(Nc2ccc(N3CCN(C(=O)NCCNCCCC(=O)Nc4cccc5c4CN(C4CCC(=O)NC4=O)C5=O)CC3)cc2)ncc1Cl (stereo not shown) [UB-181055]
10 to 100,100 to 1000,> 1000,> 1000,,,,,CNC(=O)c1ccccc1Nc1nc(Nc2ccc(N3CCN(C(=O)NCCNCCCC(=O)Nc4ccc5c(c4)CN(C4CCC(=O)NC4=O)C5=O)CC3)cc2)ncc1Cl (stereo not shown) [UB-181056]
< 10,100 to 1000,> 1000,> 1000,,,,,CNC(=O)c1ccccc1Nc1nc(Nc2ccc(N3CCN(C(=O)NCCNCCOCC(=O)Nc4cccc5c4CN(C4CCC(=O)NC4=O)C5=O)CC3)cc2)ncc1Cl (stereo not shown) [UB-181057]
10 to 100,100 to 1000,> 1000,> 1000,,,,,CNC(=O)c1ccccc1Nc1nc(Nc2ccc(N3CCN(C(=O)NCCNCCOCC(=O)Nc4ccc5c(c4)CN(C4CCC(=O)NC4=O)C5=O)CC3)cc2)ncc1Cl (stereo not shown) [UB-181058]
10 to 100,10 to 100,> 1000,> 1000,,,,,CNC(=O)c1ccccc1Nc1nc(Nc2ccc(N3CCN(C(=O)NCCOCCOCCOCCC(=O)Nc4ccc5c(c4)CN(C4CCC(=O)NC4=O)C5=O)CC3)cc2)ncc1Cl (stereo not shown) [UB-181060]
< 10,100 to 1000,> 1000,100 to 1000,,,,,CNC(=O)c1ccccc1Nc1nc(Nc2ccc(N3CCN(C(=O)NCCCNCCOCC(=O)Nc4cccc5c4CN(C4CCC(=O)NC4=O)C5=O)CC3)cc2)ncc1Cl (stereo not shown) [UB-181061]
10 to 100,100 to 1000,> 1000,> 1000,,,,,CNC(=O)c1ccccc1Nc1nc(Nc2ccc(N3CCN(C(=O)NCCCNCCOCC(=O)Nc4ccc5c(c4)CN(C4CCC(=O)NC4=O)C5=O)CC3)cc2)ncc1Cl (stereo not shown) [UB-181062]
> 1000,> 1000,> 1000,> 1000,,,,,NC(COCCOCCNC(=O)[C@]1(Cc2cccc(Nc3nccs3)n2)CC[C@@H](Oc2cccc(Cl)c2F)CC1)COCCC(=O)Nc1ccc2c(c1)CN(C1CCC(=O)NC1=O)C2=O (stereo partly shown) [UB-181064]
10 to 100,100 to 1000,> 1000,> 1000,,,,,CNC(=O)c1ccccc1Nc1nc(Nc2ccc(N3CCN(C(=O)NCCOCCOCC(N)COCCC(=O)Nc4ccc5c(c4)CN(C4CCC(=O)NC4=O)C5=O)CC3)cc2)ncc1Cl (stereo not shown) [UB-181065]
10 to 100,> 1000,> 1000,> 1000,,,,,CNC(=O)c1ccccc1Nc1nc(Nc2ccc(N3CCN(C(=O)NCCOCCNCCC(=O)Nc4cccc5c4CN(C4CCC(=O)NC4=O)C5=O)CC3)cc2)ncc1Cl (stereo not shown) [UB-181066]
10 to 100,100 to 1000,> 1000,> 1000,,,,,CNC(=O)c1ccccc1Nc1nc(Nc2ccc(N3CCN(C(=O)NCCOCCNCCC(=O)Nc4ccc5c(c4)CN(C4CCC(=O)NC4=O)C5=O)CC3)cc2)ncc1Cl (stereo not shown) [UB-181067]
10 to 100,> 1000,> 1000,> 1000,,,,,CNC(=O)c1ccccc1Nc1nc(Nc2ccc(N3CCN(C(=O)NCCOCCNCC(=O)Nc4cccc5c4CN(C4CCC(=O)NC4=O)C5=O)CC3)cc2)ncc1Cl (stereo not shown) [UB-181068]
